Like-named read-outs stand apart in the source and are kept apart here.
Legend:
[1] = system: human biliary-derived cultures; assay: Expansion of human biliary-derived liver cultures; format: cell-based; conditions: 500 uM added to expansion medium (ERFHNic and ENRWFHNic)
Lgr5 = conditions: Lgr5-LacZ knockin mice; for Lgr5 reporter expression in the liver: 0.8 ml/kg injection
Wnt signalling = Wnt signalling reporter (LacZ) in liver of Axin2-LacZ mice; conditions: after injection
liver organoid cultures = assay: Hepatocyte differentiation of liver organoid cultures by added compounds, RT-PCR of hepatocyte markers; conditions: titration, hepatocyte marker expression 7 days

Cc1cccc(-c2nn(C(=S)Nc3ccccc3)cc2-c2ccnc3ccccc23)n1 [A83-01, 3-(6-Methyl-2-pyridinyl)-N-phenyl-4-(4-quinolinyl)-1H-pyrazole-1-carbothioamide]
expansion of human biliary-derived cultures [1]: able to expand human biliary-derived cultures

ClC(Cl)(Cl)Cl [CC14, carbon tetrachloride]
time of peak Lgr5 reporter expression after injury (Lgr5): 6.5 days
Lgr5 reporter expression in the liver (Lgr5): induces Lgr5 expression in the liver at sites of active regeneration
Lgr5 reporter expression in the liver (Lgr5; listed as CCL4): upregulation of Lgr5
Wnt signalling in the liver (Wnt signalling; listed as CCL4): Wnt signalling is activated

C[C@H](NC(=O)Cc1cc(F)cc(F)c1)C(=O)N[C@H](C(=O)OC(C)(C)C)c1ccccc1 [DAPT]
maximal concentration efficiency (liver organoid cultures): 10 µM

B1: R-spondin1: Wnt agonist, secreted protein of the R-spondin family; Lgr5 ligand (protein, UniProt Q2MKA7 21-263, looked up)
R-spondin-1: SRGIKGKRQRRISAEGSQACAKGCELCSEVNGCLKCSPKLFILLERNDIRQVGVCLPSCPPGYFDARNPDMNKCIKCKIEHCEACFSHNFCTKCKEGLYLHKGRCYPACPEGSSAANGTMECSSPAQCEMSEWSPWGPCSKKQQLCGFRRGSEERTRRVLHAPVGDHAACSDTKETRRCTVRRVPCPEGQKRRKGGQGRRENANRNLARKESKEAGAGSRRRKGQQQQQQQGTVGPLTSAGPA
Wnt signalling in the liver (Wnt signalling): liver cells are responsive to Wnt stimulation
Wnt signalling in the liver (Wnt signalling; listed as R-spondin): upregulation of Wnt signalling expression in the liver ducts
